Data: the supplement of paper PMC10307832

Legend:
Assay in all cases: relative viability (nuclei count vs DMSO), 5 days (fraction); higher = more cells survive
[1] = compound: CC1=C(C(=NN1)C)CC2=C(C3=C(S2)N(C(=O)N(C3=O)C)CC(C)C)C(=O)N4C[C@@H](CO4)O + COc1cc2c(Oc3ccc(NC(=O)C4(C(=O)Nc5ccc(F)cc5)CC4)cc3F)ccnc2cc1OCCCN1CCOCC1 [Foretinib] (partner 0.25 µM)
How it was run: (§1)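 After 5 days of treatment, lung cancer cells in 1536-well plates were fixed and stained in a single step (final 0.05% Triton X-100, 1% formaldehyde, 1 ug/ml Hoechst) and their nuclei counted on 4× images. Treatment had been applied by pin tool the day after seeding as one drug alone or as a fixed anchor-drug dose with five library-drug doses (not always all listed) in √10 steps. Relative viability is the nuclei count of treated wells divided by that of vehicle wells, and values are medians of duplicate plates.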

IDH-C35 + Navitoclax = compound: Cc1ccccc1C(C(=O)NC1CCCCC1)N(C(=O)Cn1ccnc1C)c1cccc(F)c1 [IDH-C35] + CC1(C)CCC(c2ccc(Cl)cc2)=C(CN2CCN(c3ccc(C(=O)NS(=O)(=O)c4ccc(N[C@H](CCN5CCOCC5)CSc5ccccc5)c(S(=O)(=O)C(F)(F)F)c4)cc3)CC2)C1 [Navitoclax] (partner 0.5 µM)
How it was run: as §1

IDH-C35 + Decitabine = compound: Cc1ccccc1C(C(=O)NC1CCCCC1)N(C(=O)Cn1ccnc1C)c1cccc(F)c1 [IDH-C35] + Nc1ncn([C@H]2C[C@H](O)[C@@H](CO)O2)c(=O)n1 [Decitabine] (partner 2 µM)
How it was run: as §1

[2] = compound: CC1=C(C(=NN1)C)CC2=C(C3=C(S2)N(C(=O)N(C3=O)C)CC(C)C)C(=O)N4C[C@@H](CO4)O + Nc1ncn([C@H]2C[C@H](O)[C@@H](CO)O2)c(=O)n1 [Decitabine] (partner 2 µM)
How it was run: as §1

Cell Line	relative viability ([1]; first compound 0.0025 µM)	relative viability ([1]; first compound 0.007906 µM)	relative viability ([1]; first compound 0.025 µM)	relative viability ([1]; first compound 0.07906 µM)	relative viability ([1]; first compound 0.25 µM)	relative viability (IDH-C35 + Navitoclax; first compound 0.08 µM)	relative viability (IDH-C35 + Navitoclax; first compound 0.253 µM)	relative viability (IDH-C35 + Navitoclax; first compound 0.8 µM)	relative viability (IDH-C35 + Navitoclax; first compound 2.53 µM)	relative viability (IDH-C35 + Navitoclax; first compound 8 µM)	relative viability (IDH-C35 + Decitabine; first compound 0.08 µM)	relative viability (IDH-C35 + Decitabine; first compound 0.253 µM)	relative viability (IDH-C35 + Decitabine; first compound 0.8 µM)	relative viability (IDH-C35 + Decitabine; first compound 2.53 µM)	relative viability (IDH-C35 + Decitabine; first compound 8 µM)	relative viability ([2]; first compound 0.0025 µM)	relative viability ([2]; first compound 0.007906 µM)	relative viability ([2]; first compound 0.025 µM)	relative viability ([2]; first compound 0.07906 µM)	relative viability ([2]; first compound 0.25 µM)
LOU-NH91	0.931	0.877	0.988	1.02	0.972	0.69	0.78	0.722	0.635	0.735	0.808	0.799	0.795	0.767	0.799	0.83	0.798	0.839	0.864	0.823
LU99A	0.901	0.943	0.766	0.768	0.747	0.702	0.814	0.871	0.925	0.781	0.963	0.853	0.944	0.867	0.849	0.784	0.979	0.825	0.901	0.976
LXF-289	0.963	0.926	1.02	0.994	1.03	0.968	0.931	0.961	0.896	0.987	0.405	0.401	0.38	0.371	0.415	0.432	0.395	0.354	0.393	0.443
NCI-H23	1.05	0.992	0.965	1.07	1.16	0.792	0.828	0.883	0.992	0.807	0.332	0.35	0.336	0.332	0.312	0.307	0.329	0.289	0.345	0.334
NCI-H322M	1.07	0.969	1.04	0.977	0.98	1.34	1.12	1.23	1.15	1.2	0.686	0.701	0.695	0.718	0.78	0.63	0.736	0.698	0.659	0.707
NCI-H441	1.43	1.2	0.826	0.937	0.968	0.694		0.568	0.582	0.675	0.279	0.23	0.272	0.244	0.228	0.215	0.255	0.298	0.267	0.272
NCI-H460	1.01	1.09	0.949	1.01	1.11	1.26	1.19	1.06	1.07	1.21	0.541	0.46	0.482	0.467	0.466	0.512	0.604	0.502	0.494	0.557
NCI-H520	0.894	0.73	0.701	0.564	0.692	1.02	1.15	1.07	0.933	1.21	0.407	0.462	0.538	0.508	0.486	0.476	0.448	0.45	0.423	0.371
NCI-H596	1.08	1.12	0.691	0.702	0.99	1.1	1	0.925	0.867	0.962	1.06	1.04	0.933	0.853	1.02	1.11	1.1	1.1	0.989	1.06
NCI-H647	1.23	1.27	1.13	1.19	1.2	1.26	1.18	0.916	1.04	1.12	0.45	0.344	0.401	0.42	0.366	0.48	0.44	0.298	0.535	0.321
NCI-H727	1.15	1.13	0.882	0.876	0.897	0.377	0.429	0.371	0.399	0.35	0.797	0.979	0.708	0.845	0.939	0.807	0.915	0.862	0.943	0.969
NCI-H838	1.06	1.04	0.983	0.974	0.99	1.15	1.11	1.19	1.15	1.11	0.446	0.414	0.468	0.464	0.486	0.447	0.489	0.43	0.455	0.444
NCI-H1355	1.04	1.11	1	1.02	1.12	0.952	0.928	0.934	0.938	0.996	0.347	0.379	0.353	0.419	0.344	0.443	0.375	0.346	0.324	0.332
NCI-H1395	1.11	1.04	0.804	0.812	0.824	1.14	1.05	1.49	1.08	1.16	0.695	0.649	0.676	0.754	0.653	0.801	0.68	0.707	0.763	0.694
NCI-H1437	1.26	1.29	1.18	1.3	1.24	1.08	1.07	1.08	1.19	0.975	0.56	0.56	0.576	0.572	0.525	0.532	0.59	0.519	0.612	0.548
NCI-H1650	1.18	1.26	1.52	1.18	1.05	1.23	1.21	1.19	1.24	1.17	0.417	0.358	0.408	0.465	0.453	0.365	0.424	0.388	0.292	0.309
NCI-H1651	0.708	0.832	0.735	0.821	0.815	1.03	1.01	0.972	1.03	1.01	0.528	0.629	0.593	0.615	0.555	0.519	0.699	0.538	0.579	0.567
NCI-H1666	0.93	0.995	0.897	0.94	1.03	1.03	0.977	0.961	1.07	0.881	0.676	0.801	0.747	0.606	0.655	0.631	0.831	0.74	0.666	0.658
NCI-H1734	0.811	0.976	0.896	0.9	0.916	0.9	0.849	0.827	0.796	0.791	0.537	0.524	0.528	0.483	0.499	0.561	0.516	0.533	0.451	0.503
NCI-H1755	0.97	0.996	0.873	0.911	0.897	0.981	1.01	0.973	0.976	0.96	0.685	0.639	0.757	0.708	0.708	0.699	0.811	0.742	0.646	0.696
NCI-H1793	0.67	0.784	0.732	0.665	0.605	0.549	0.446	0.444	0.456	0.608	0.519	0.454	0.535	0.586	0.476	0.295	0.517	0.471	0.449	0.524
NCI-H1915	1.18	1.12	1.05	1.01	1.11	0.772	0.753	0.759	0.729	0.767	0.278	0.248	0.293	0.281	0.277	0.279	0.265	0.242	0.258	0.265
NCI-H1944	0.985	1.02	0.898	1.02	0.889	1.02	1.04	0.942	1.05	1.04	0.43	0.416	0.43	0.416	0.437	0.452	0.46	0.462	0.404	0.448
NCI-H1975	0.946	1.06	1	0.949	0.984	1.12	1.34	1.03	1.09	1.01	0.442	0.403	0.379	0.438	0.364	0.37	0.41	0.393	0.444	0.423
NCI-H1993	0.767	0.719	0.827	0.711	0.749	0.943	0.878	0.919	1.1	1.13	0.586	0.567	0.7	0.693	0.566	0.59	0.523	0.607	0.595	0.536
NCI-H2009	1.16	1.27	1.17	1.35	1.15	1.22	1.16	1.12	1.17	1.16	0.354	0.408	0.387	0.321	0.372	0.412	0.408	0.342	0.418	0.407
